From US20240309365A1, “MODULATING TRANSCRIPTIONAL CONDENSATES” (Whitehead Institute for Biomedical Research, priority 2020, published 2024)
Numbered stars: 1 amine (or outer) side, 2 acyl side, 3 side chain; on linkers, the order of the positions; unused ones are H or OH. Bridge positions count the residues as written; N and C are the ends. Square brackets hold non-standard residues; d marks the D form. Peptide text beside a SMILES is read from it. I, II: the chains in the order shown. Actinocin(9to1) = Cc1c2oc3c(C)ccc(C(=O)[*:1])c3nc-2c(C(=O)[*:2])c(N)c1=O; NMeV = CN[C@H](C(=O)O)C(C)C; Sar = CNCC(=O)O

Columns and labels:
[1] = tested on: Med1-GFP condensates in mESCs; assay: Condensate size in Med1-GFP mESCs after transcription inhibition; type: cell-based, mouse; conditions: 30 minutes; 100 μM DRB or 1 μM Actinomycin-D; 3D super-resolution microscopy
Protocol: (§1) For small molecule inhibition experiments, cells were treated with 100 μM DRB (Sigma), or 1 μM Actinomycin-D (Sigma) in 2i media (detailed above) for 30 minutes, then imaged. For wash-out experiments, media was replaced with fresh 2i media and cells were allowed to recover for 1 hour, then the cells were imaged.
Cells with endogenously-tagged Med1-GFP (Sabari et al., 2018) were plated on glass-bottom dishes (Mattek) coated with poly-L-ornithine (Sigma) and laminin (ThermoFisher). Mock (DMSO) and treated cells were imaged on a LSM 880 Confocal Microscope with Airyscan to obtain super-resolution z-stacks for at least 8 different fields containing multiple cells. For quantification, a manual threshold was applied equally across all conditions to remove background, and the size of Med1-GFP puncta was quantified in 3D using the 3D object counter plugin (Fiji/ImageJ).

[2] = tested on: Med19 condensates in mESCs; assay: Condensate lifetime in Med19-Halo mESCs by tcPALM; type: cell-based, mouse
Protocol: as §1
HaloTag was endogenously knocked into 5′-end of Med19 via homology-directed repair (HDR) in mouse embryonic stem cells (R1 mESCs). Three single-guide RNAs (sgRNAs) targeting+/−100 bps from the start codons of Med19 gene were designed using the web-based CRISPR Design tool (http://crispr.mit.edu) and integrated into a Streptococcus pyogenes Cas9 vector (Addgene #62988) for standard CRISPR/Cas9 editing. Single positive colonies were sorted by fluorescence-activated cell sorting (FACS) and validated under the microscope. […]
Photo-activation localization microscopy (PALM) imaging was performed using a Nikon Eclipse Ti microscope with a 100× oil immersion objective (NA 1.40) (Nikon, Tokyo, Japan). […] Med19-Halo cluster lifetimes were calculated as previously described using the qSR software (dark time tolerance=20 frames, min cluster size=50) (Andrews et al., 2018), and a cumulative distribution was generated using Prism software (GraphPad).

[3] = tested on: reconstituted mammalian transcription system (Pol II, general transcription factors, Mediator, Gal4); assay: Reconstituted in vitro transcription assay (droplets and qRT-PCR output); type: biochemical; conditions: 2 mM NTPs, 200 mM NaCl, 500 nM heparin, spermine at concentrations predicted to balance charge; for partitioning of template DNA into droplets: Cy3-labeled template DNA; for droplet area: added to the transcription reaction; for transcription (levels of RNA synthesis): qRT-PCR of template-derived RNA
Protocol: For the size analysis of droplets formed in the reconstituted transcription assays (FIG. 3), brightfield images were subtracted by a median-filtered image (px=21), and droplets were manually segmented and their areas measured using ImageJ.
The reconstituted in vitro transcription by RNA polymerase II was performed as previously described (Flores et al., 1992; LeRoy et al., 2008, 2019; Orphanides et al., 1998) with some modifications. A 1000 bp template DNA (unlabeled or Cy-3 labeled at 3′ end) containing adenovirus major late promoter, five Gal4 binding sites, TATA-box sequence and 561 bp from eGFP sequence was used. First, pre-initiation complex was assembled at RT for 15 min by mixing the following components: 50 nM RNA polymerase II enriched for hypophosphorylated CTD, 50 nM general transcription factors (TFIIA-B-D-E-F-H), and 5.75 nM template DNA, in a buffer containing 10 mM HEPES pH 7.5, 65 mM NaCl, 6.25 mM MgCl2, and 6.25 mM Sodium butyrate. Next, 10 nM Mediator complex and 10 nM GAL4 (Gal4 DNA binding domain fused to activation domain of VP16) were added to the reaction. Last, nucleotide mix containing 0.375 mM ATP, CTP, UTP, GTP (Invitrogen), 0.01 U RNase Inhibitor (Invitrogen), 1.25% PEG-8000 were added together with one of the following: a) various amounts of purified exogenous Pou5f1 RNA (0-500 nM) b) spermine (Sigma, S4264) c) extra NTPs (Invitrogen) d) extra NaCl e) heparin (Sigma, H3393). The reaction was incubated at 30° C. for 2 hr. RNA isolation was performed using RNeasy kit (Qiagen) by including a spike-in RNA control and an RNA carrier. Purified RNAs were treated with ezDNase (Invitrogen) for 30 min at 37° C. to eliminate the template DNA. Reverse transcription was performed using Superscript IV (Invitrogen) and qPCR was performed with SYBR Green Real Time PCR master mix (Invitrogen) to quantify the template derived transcriptional output. The Ct values of the reactions were normalized to the spike-in RNA control. The concentration of template derived transcriptional output was calculated by using a standard curve of qRT-PCR Ct values generated by known amounts of serially diluted GFP RNA.
To visualize the droplets formed in the reconstituted transcription assay, using a micropipette (2-20 μL), 5 μL of the reactions were loaded onto a homemade chamber, which was prepared by attaching coverslips to a glass slide by parallel strips of double-sided tape (Sabari et al., 2018). After the droplets were settled on the glass coverslip, the images were collected by using RPI Spinning Disk confocal microscope with a 100× objective. To account for camera artifacts in the images, brightfield Images of droplets from reconstituted assays were subjected to a white tophat filter with a disk element radius of 21 using the MorphoLib plugin in ImageJ, then a Gaussian filter (sigma=1) was applied.

[4] = molecular target: T1, MED1-IDR (Homo sapiens, UniProt Q15648); assay: In vitro droplet assay with MED1-IDR-GFP; type: biochemical; conditions: alternative polyanions instead of RNA
T1 construct: Amino acids included; 6xHIS; made in house; host or cells: LOBSTR cells (E. coli), pET plasmid, Ni-NTA purification
T1 sequence (Q15648 948-1573): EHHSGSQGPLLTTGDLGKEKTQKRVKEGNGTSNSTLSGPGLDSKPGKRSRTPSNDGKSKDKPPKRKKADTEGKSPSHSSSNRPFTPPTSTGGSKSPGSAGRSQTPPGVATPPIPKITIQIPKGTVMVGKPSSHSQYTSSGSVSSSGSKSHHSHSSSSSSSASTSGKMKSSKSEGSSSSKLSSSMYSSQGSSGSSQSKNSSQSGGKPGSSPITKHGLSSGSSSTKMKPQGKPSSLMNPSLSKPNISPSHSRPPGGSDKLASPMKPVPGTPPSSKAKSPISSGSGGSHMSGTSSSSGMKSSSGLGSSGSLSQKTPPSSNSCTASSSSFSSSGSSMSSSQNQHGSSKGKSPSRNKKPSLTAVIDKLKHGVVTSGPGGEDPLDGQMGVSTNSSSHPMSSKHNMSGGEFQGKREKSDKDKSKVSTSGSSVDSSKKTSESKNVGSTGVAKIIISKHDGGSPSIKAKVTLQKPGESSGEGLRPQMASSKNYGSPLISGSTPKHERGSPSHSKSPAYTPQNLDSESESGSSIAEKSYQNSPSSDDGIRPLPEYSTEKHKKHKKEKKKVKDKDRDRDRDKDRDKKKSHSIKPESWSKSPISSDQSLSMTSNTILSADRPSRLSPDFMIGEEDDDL
Protocol: Charge-balance calculations were performed (FIGS. 2, 9, 10 and 11) employing the following method. Net protein charge per molecule was calculated as Cp=#(R, K)−#(D, E) for the relevant sequence including the GFP tag. RNA charge per molecule was calculated as Cr=−(# […]), assuming an approximate charge of −1 per nucleotide (Lin et al., 2019). Next, the charge balance ratio was computed at a particular RNA and protein concentration as:
The effective concentration of MED1-IDR in the assays was 1000 nM. The results were not quantitatively affected by inclusion/exclusion of the partial charge on Histidine residues, partly due to their low frequency on the protein sequences. For Heparin, a charge of roughly −3 per monomer was employed (Lin et al., 2020) and for single-stranded DNA, a charge of −1 per nt was employed. The fit is quantified by calculating Pearson correlation coefficient (r) was calculated between the median droplet partition value at different concentrations and the relevant charge-balance ratios and reported in FIGS. 2, 9, 10, and 11. A higher correlation implies that experimental data follow a similar qualitative trend as the estimated charge-balance curves. The code for performing these calculations are available at: […]

[5] = tested on: T2, Mediator complex; assay: In vitro droplet assay with purified Mediator complex; type: biochemical, human; conditions: 6-400 nM RNA added to 200 nM purified Mediator complex
T2 construct: Purification of Human Mediator Complex from HeLa Nuclear Extract; endogenous in cells; host or cells: HeLa nuclear extract, multi-step column purification
Protocol: HeLa nuclear protein extract (4 g) was prepared as described in (Dignam et al., 1983). Nuclear extract was dialyzed against BC100: BC buffer, pH 7.5+100 mM KCl (20 mM Tris-HCl, 20 mM B-Mercaptoethanol, 0.2 mM PMSF, 0.2 mM EDTA, 10% glycerol (v/v) and 100 mM KCl). The extract was fractionated on a phosphocellulose column (P11) with BC buffer containing 0.1, 0.3, 0.5 and 1M KCl. The Mediator complex eluted in the 0.5M KCL (BC500) fraction. This fraction was dialyzed against BC100 and loaded on a DEAE Cellulose column and sequentially fractionated with BC buffer containing 0.1, 0.3 and 0.5M KCl. […] This fraction was then directly loaded onto a DEAE-5 PW column (TSK) and eluted with a linear KCl gradient from 0.1 to 1M KCl in BC buffer. The Mediator complex eluted between 0.4 and 0.6M KCl. The fractions containing Mediator were pooled and dialyzed against BD700: BD buffer, (20 mM Hepes pH 7.5, 20 mM β-Mercaptoethanol, 0.2 mM PMSF, 0.2 mM EDTA, 10% glycerol, and 700 mM (NH4)2SO4). This fraction was then loaded onto a Phenyl-Sepharose Hydrophobic Interaction Chromatography (HIC) column and eluted with a linear reverse gradient from 0.7 to 0.025M (NH4)2SO4 in BD buffer. The Mediator complex eluted between 0.3 and 0.1M (NH4)2SO4. […]

| Molecule | partitioning of template DNA into droplets [3] | droplet area [3] | transcription (levels of RNA synthesis) [3] | further results |
| --- | --- | --- | --- | --- |
| OC[C@H]1O[C@@H](n2cnc3cc(Cl)c(Cl)cc32)[C@H](O)[C@@H]1O [DRB] | – | – | – | increase in volume of Med1-GFP condensates [1]: ~2 fold; lifetime of Med19 condensates versus mock-treated cells ([2]; 100 μM DRB, 30 minutes, tcPALM): significantly longer lifetimes; lifetime of Med19 condensates after wash with fresh media ([2]; DRB-treated cells washed, 1 hour recovery): recovered to those of the mock-treated condition |
| Cc1c2oc3c(C)ccc(C(=O)N[C@@H]4C(=O)N[C@H](C(C)C)C(=O)N5CCC[C@H]5C(=O)N(C)CC(=O)N(C)[C@@H](C(C)C)C(=O)O[C@@H]4C)c3nc-2c(C(=O)N[C@@H]2C(=O)N[C@H](C(C)C)C(=O)N3CCC[C@H]3C(=O)N(C)CC(=O)N(C)[C@@H](C(C)C)C(=O)O[C@@H]2C)c(N)c1=O [Actinomycin-D] (I: T[dV]P[Sar][NMeV] / II: T[dV]P[Sar][NMeV]; ester I:1-I:C, II:1-II:C; linker I:N-II:N via Actinocin(9to1)) | – | – | – | increase in volume of Med1-GFP condensates [1]: ~2 fold |
| [Cl-].[Na+] [NaCl] | reductions | reductions | reductions | – |
| heparin | reductions | reductions | reductions | fit of MED1-IDR partitioning to the charge balance model [4]: charge balance model also held |
| NCCCNCCCCNCCCN [spermine] | increased | increased | increased | – |
| ssDNA: single-stranded DNA, 117 nt, SEQ ID NO: 51, alternative polyanion (nucleic acid, DNA, backbone and methylation of C not given here) DNA: GGTTCTGCCGCAGGTGGATCCGGTATGTCCACCGCCACGACAGTCGCCCCCGCGGGGATCCCGGCGACCCCGGGCCCTGTGAACCCACCCCCCCCGGAGGTCTCCAACCCCAGCAAG | – | – | – | fit of MED1-IDR partitioning to the charge balance model [4]: charge balance model also held |
| Trim28 enhancer RNA: enhancer RNA transcribed from the Trim28 super-enhancer, 594 nt, SEQ ID NO: 46 (nucleic acid, 47) AAATCTTGGAGAGAGTAGGACCTGAGCTGTTTCCTATTTCTACTACTTCCATAGACATCCATGGGTCTCCTTTGGTTCTTACCTTAAACTGCAGTTCTAGAGGCTCTTCTGGGGTTGTAAACTGCCCTTCCCCAACTCAGGAGCTCCCATTCCCTCCCCTTCCTAAACTGGCCCTACTTGTTCGCTCTACTTTATCTTGCCAGGGGTTGTAACAGCCTCCAATCTGTCTTGGATCAGGAAGCAGTTTCCATGGGGTATTTTAAGTGTAAGTTCCCCGGTGAAATGGAAACAAAAAGAATAAGGTATTCTGGGGACAGTGTAGGCCCACTAGGGTGTAGCTTGTTTTGTAAACACAGGACCTGAGTTTTGGACTTTGCCCTGGATTGTACCTGTCCCAGTGGGTTACCTTAGATGACACTAGCTTCATAATGCAAGAGGAGGTTAAGATGCTGGCTAGCGTTACCCACTTTGAAGGTACTGGAAAAGGAAGACCTGATTTACCCAAAAGAGGGAGATCTCTGTGCTTCTACCGCTTTAATTTTTTTTTTCTTTTTTTAAATATTTTTGCAGGACTGGTCACTGTAACTTTTTCCC | – | – | – | RNA concentration at which droplet sizes peaked [5]: 100 nM; effect on the size of Mediator/RNA droplets [5]: dose-dependent effect |
